US8778966B2, “Quinolinone derivatives as PARP and tank inhibitors” (Janssen Pharmaceutica, NV, priority 2007, dated 2014)
Where two headings read alike, the source gives them in different places.

Columns and labels:
PC3 cells = assay: EB1 Comet (microtubule disruption) assay; assay type: cell-based, human; details: 1 hour treatment; for minimal effective concentration: Homo sapiens, PC-3, 1 h, read-out: EB1 pLAC (converted)
Outline: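 PC3 human prostate cancer cells exposed to compound for 1 h at 37 °C (0.6% DMSO final), methanol-fixed, immunostained for Eb1 and imaged at 20×. Value is the lowest active concentration (LAC): the concentration at which Eb1 foci are absent in at least 50% of treated cells.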

HCT116 cells = assay: Antiproliferative activity, Alamar Blue assay, HCT116 cells; assay type: cell-based, human; set-up: key to HCT116 antiproliferative activity pIC50: pIC50 = -log IC50 (IC50: conc. reducing growth to 50% of control); details: for IC50: Homo sapiens, HCT-116, HCT116 cells, read-out: HCT116 antiproliferative activity pIC50 (converted)
Outline: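 HCT116 cells seeded, adhered 24 h, then exposed to compound for 4 days; Alamar Blue (resazurin) added for 4 h at 37 °C, fluorescence read at 540/590 nm. Viability as % of untreated control, triplicate wells; IC50 by probit analysis, reported as pIC50.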

| IC50 (HCT116 cells; Alamar Blue) | SMILES | minimal effective concentration (PC3 cells) | further results |
| --- | --- | --- | --- |
|  | CCc1cc2ccc(C(C)(C#N)Cc3cccc(C#N)n3)cc2[nH]c1=O (single isomer, unassigned) [Compound 207] | 0.1 µM | HCT116 antiproliferative activity pIC50 (HCT116 cells; HCT116 cells, Alamar Blue): 7.0 |
| 251 nM | CCc1cc2ccc([C@@](C)(C#N)Cc3cccc(N(C)C)c3)cc2[nH]c1=O (single isomer, unassigned) [Compound 258] | 0.316 µM |  |
| 10000 nM | CCc1cc2ccc([C@](C)(C#N)Cc3cccc(N(C)C)c3)cc2[nH]c1=O (single isomer, unassigned) [Compound 259] |  |  |
| 3160 nM | CCC[C@@](C#N)(Cc1ccccc1)c1ccc2cc(CC)c(=O)[nH]c2c1 (single isomer, unassigned) [Compound 263] | 3.16 µM |  |
| 10000 nM | CCC[C@](C#N)(Cc1ccccc1)c1ccc2cc(CC)c(=O)[nH]c2c1 (single isomer, unassigned) [Compound 264] |  |  |
| 10000 nM | CCc1cc2ccc([C@@](C)(C#N)Cc3cccc(C#N)c3)cc2[nH]c1=O (single isomer, unassigned) [Compound 268] |  |  |
| 200 nM | CCc1cc2ccc([C@](C)(C#N)Cc3cccc(C#N)c3)cc2[nH]c1=O (single isomer, unassigned) [Compound 269] | 0.1 µM |  |
| 10000 nM | CCc1cc2ccc([C@](C)(C#N)C[C@@H]3Cc4cc(C)ccc4O3)cc2[nH]c1=O (single isomer, unassigned) [Compound 400] |  |  |
| 10000 nM | C#Cc1cccc(C[C@](C)(C#N)c2ccc3cc(CC)c(=O)[nH]c3c2)c1 [Compound 2] |  |  |
| 39.8 nM | C#Cc1cccc(C[C@@](C)(C#N)c2ccc3cc(CC)c(=O)[nH]c3c2)c1 [Compound 3] | 0.01 µM |  |
|  | CCc1cc2ccc(C(C#N)(CC)Cc3ccccc3)cc2[nH]c1=O (stereo not shown) [Compound 32] | 1 µM | IC50 (HCT116 cells): 2000 nM |
|  | COc1ccccc1-c1nc(CC(C)(C#N)c2ccc3cc(C)c(=O)[nH]c3c2)no1 (stereo not shown) [Compound 33] |  | IC50 (HCT116 cells): 794 nM |
|  | Cc1cc2ccc(C(C)(C#N)Cc3cccc(C#N)c3)cc2[nH]c1=O (stereo not shown) [Compound 34] | 0.316 µM | IC50 (HCT116 cells): 200 nM |
|  | Cc1cc2ccc([C@@](C)(C#N)Cc3cccc(C#N)c3)cc2[nH]c1=O [Compound 35] |  | IC50 (HCT116 cells): 7940 nM |
|  | Cc1cc2ccc([C@](C)(C#N)Cc3cccc(C#N)c3)cc2[nH]c1=O [Compound 36] | 0.316 µM | IC50 (HCT116 cells): 50.1 nM |
|  | Cc1cc2ccc(C(C)(C#N)Cc3cccc(Cl)c3)cc2[nH]c1=O (stereo not shown) [Compound 37] | 3.16 µM | IC50 (HCT116 cells): 316 nM |
|  | CC(C)c1cc2ccc(C(C)(C#N)Cc3ccccc3)cc2[nH]c1=O (stereo not shown) [Compound 38] |  | IC50 (HCT116 cells): > 10000 nM |
|  | CC(=O)c1cc2ccc(C(C)(C#N)Cc3ccccc3)cc2[nH]c1=O (stereo not shown) [Compound 39] |  | IC50 (HCT116 cells): > 10000 nM |
| 3160 nM | CCc1cc2ccc(C(C)(C#N)Cc3cccc(OC[C@@H](O)CO)c3)cc2[nH]c1=O (stereo partly shown) [Compound 56] | 3.16 µM |  |
| 5010 nM | CCc1cc2ccc(C(C)(C#N)Cc3cccc(CCC#N)c3)cc2[nH]c1=O (stereo not shown) [Compound 169] |  | EB1 pLAC (PC3 cells): 6 |
| 5010 nM | CCc1cc2ccc(C(C)(C#N)Cc3cccc(CNS(C)(=O)=O)c3)cc2[nH]c1=O (stereo not shown) [Compound 170] | 3.16 µM |  |

| IC50 (HCT116 cells; Alamar Blue) | SMILES | minimal effective concentration (PC3 cells) | further results |
| --- | --- | --- | --- |
| 501 nM | C=Cc1cccc(CC(C)(C#N)c2ccc3cc(CC)c(=O)[nH]c3c2)c1 (stereo not shown) [Compound 172] | 0.1 µM |  |
| 631 nM | CCc1cc2cc(F)c(C(C)(C#N)Cc3cccc(C#N)c3)cc2[nH]c1=O (stereo not shown) [Compound 175] | 1 µM |  |
| 2510 nM | CCc1c(C)c2ccc(C(C)(C#N)Cc3cccc(C#N)c3)cc2[nH]c1=O (stereo not shown) [Compound 181] | 0.316 µM |  |
| 6310 nM | CCc1cc2cc(OCCOC)c(C(C)(C#N)Cc3cccc(C#N)c3)cc2[nH]c1=O (stereo not shown) [Compound 182] |  |  |
| 63.1 nM | CCc1cc2ccc(C(C)(C#N)Cc3cccc(C#CCO)c3)cc2[nH]c1=O (stereo not shown) [Compound 183] | < 0.0316 µM |  |
| 3160 nM | CCc1cc2ccc(C(F)(C#N)Cc3ccccc3)cc2[nH]c1=O (stereo not shown) [Compound 187] | 5.62 µM |  |
| 1260 nM | CCc1cc2ccc(C(C)(C#N)CN(C)Cc3ccccc3)cc2[nH]c1=O (stereo not shown) [Compound 189] | 1 µM |  |
| 2000 nM | CCc1cc2ccc(C(C)(C#N)C(C)c3ccccc3)cc2[nH]c1=O (stereo not shown) [Compound 198] | 0.316 µM |  |
| 10000 nM | CCc1cc2ccc([C@](C)(C#N)[C@@H](C)c3ccccc3)cc2[nH]c1=O [Compound 199] |  |  |
| 1580 nM | CCc1cc2ccc([C@](C)(C#N)[C@H](C)c3ccccc3)cc2[nH]c1=O [Compound 200] | 0.316 µM |  |
| 316 nM | C#Cc1cccc(CC(C)(C#N)c2ccc3cc(CC)c(=O)[nH]c3c2)n1 (stereo not shown) [Compound 211] | 0.1 µM |  |
| 501 nM | CCc1cc2ccc(C(C)(C#N)Cc3cccc(N(C)C)n3)cc2[nH]c1=O (stereo not shown) [Compound 213] | 0.316 µM |  |
| 501 nM | CCc1cc2ccc(C(C)(C#N)Cc3cccc(I)n3)cc2[nH]c1=O (stereo not shown) [Compound 214] | 0.1 µM |  |
| 1580 nM | CCOC(=O)c1cccc(CC(C)(C#N)c2ccc3cc(CC)c(=O)[nH]c3c2)n1 (stereo not shown) [Compound 215] | 0.316 µM |  |
| 2000 nM | CCc1cc2ccc(C(C)(C#N)Cc3cccc(COC)n3)cc2[nH]c1=O (stereo not shown) [Compound 216] | 1 µM |  |
| 5010 nM | CCc1cc2ccc(C(C)(C#N)Cc3cccc(OCCOC)n3)cc2[nH]c1=O (stereo not shown) [Compound 219] | 1 µM |  |
| 1260 nM | CCc1cc2ccc(C(C)(C#N)Cc3cccc(CN)n3)cc2[nH]c1=O (stereo not shown) [Compound 221] | 3.16 µM |  |
| 251 nM | CCc1cc2ccc(C(C)(C#N)Cc3cccc(OCCO)c3)cc2[nH]c1=O (stereo not shown) [Compound 262] |  |  |
| 6310 nM | CCc1cc2ccc(C(C)(C#N)CCOc3cccc(C(F)(F)F)c3)cc2[nH]c1=O (stereo not shown) [Compound 274] |  |  |
| 158 nM | CCc1cc2ccc(C(C)(C#N)Cc3cccc(CN)c3)cc2[nH]c1=O (stereo not shown) [Compound 290] | 3.16 µM |  |
| 501 nM | CCc1cc2ccc(C(C)(C#N)Cc3cccc(/C=C/S(C)(=O)=O)c3)cc2[nH]c1=O (stereo not shown) [Compound 292] | 0.1 µM |  |

| IC50 (HCT116 cells; Alamar Blue) | SMILES | minimal effective concentration (PC3 cells) | further results |
| --- | --- | --- | --- |
| 794 nM | CCc1c(Cl)c2ccc(C(C)(C#N)Cc3cccc(C#N)c3)cc2[nH]c1=O (stereo not shown) [Compound 293] | 1 µM |  |
| 6310 nM | CCc1cc2cc(OC)c(C(C)(C#N)Cc3ccccc3)cc2[nH]c1=O (stereo not shown) [Compound 294] |  |  |
| 398 nM | CCc1cc2ccc(C(C)(C#N)Cc3cccc(C#CCOC)c3)cc2[nH]c1=O (stereo not shown) [Compound 297] | 0.1 µM |  |
| 2510 nM | CCc1cc2ccc(C(C)(C#N)Cc3cccc(C#CCN(C)C)c3)cc2[nH]c1=O (stereo not shown) [Compound 298] | 1 µM |  |
| 3980 nM | CCc1cc2ccc(C(C)(C#N)CNCc3cccc(C#N)c3)cc2[nH]c1=O (stereo not shown) [Compound 301] | 3.16 µM |  |
| 2000 nM | CCc1cc2ccc(C(C)(C#N)Cc3cnc(Cl)nc3Cl)cc2[nH]c1=O (stereo not shown) [Compound 306] | 3.16 µM |  |
| 316 nM | COc1cc(OC)nc(CC(C)(C#N)c2ccc3cc(C)c(=O)[nH]c3c2)n1 (stereo not shown) [Compound 308] |  |  |
| 1000 nM | CCOc1cc(OCC)nc(CC(C)(C#N)c2ccc3cc(CC)c(=O)[nH]c3c2)n1 (stereo not shown) [Compound 309] | 3.16 µM |  |
| 501 nM | CCc1cc2ccc(C(C)(C#N)Cc3cccc(Cl)n3)cc2[nH]c1=O (stereo not shown) [Compound 310] | 1 µM |  |
| 3160 nM | CCc1cc2ccc(C(C)(C#N)Cc3ncc(C)c(OC)c3C)cc2[nH]c1=O (stereo not shown) [Compound 311] | 3.16 µM |  |
| 2000 nM | CCc1cc2ccc(C(C)(C#N)Cc3ccc(C)nc3)cc2[nH]c1=O (stereo not shown) [Compound 327] |  |  |
| 316 nM | CCc1cc2ccc(C(C)(C#N)Cc3cccc(C#N)n3)cc2[nH]c1=O (stereo not shown) [Compound 329] | 0.316 µM |  |
| 5010 nM | CCCn1ccnc1CC(C)(C#N)c1ccc2cc(CC)c(=O)[nH]c2c1 (stereo not shown) [Compound 335] | 10 µM |  |
| 2510 nM | CCc1cc2ccc(C(C)(C#N)Cc3ccc4ccccc4n3)cc2[nH]c1=O (stereo not shown) [Compound 336] | 1 µM |  |
| 5010 nM | CCc1cc2ccc(C(C)(C#N)Cc3nccn3CC)cc2[nH]c1=O (stereo not shown) [Compound 337] | 1 µM |  |
| 1580 nM | CCc1cc2ccc(C(C)(C#N)Cc3nc4ccccc4n3C)cc2[nH]c1=O (stereo not shown) [Compound 338] | 1 µM |  |
| 2000 nM | CCc1cc2ccc(C(C)(C#N)Cc3cccc(CO)n3)cc2[nH]c1=O (stereo not shown) [Compound 345] |  |  |
| 200 nM | CCc1cc2ccc(C(C)(C#N)Cc3cccc(OC)n3)cc2[nH]c1=O (stereo not shown) [Compound 353] |  |  |
| 3160 nM | CCc1cc2ccc(C(C)(C#N)Cc3cc(OC)nc(OC)n3)cc2[nH]c1=O (stereo not shown) [Compound 358] |  |  |
| 7940 nM | CCc1cc2ccc(C(C)(C#N)Cc3cc(OC)ccn3)cc2[nH]c1=O (stereo not shown) [Compound 373] |  |  |

| SMILES | IC50 (HCT116 cells; Alamar Blue) | minimal effective concentration (PC3 cells) | further results |
| --- | --- | --- | --- |
| CCc1cc2ccc(C(C)(C#N)Cc3cccc(C#C[Si](C)(C)C)n3)cc2[nH]c1=O (stereo not shown) [Compound 210] | 501 nM | 0.316 µM |  |
